One series has as its target (H+—K+)-ATPase (Homo sapiens, UniProt P20648). Particulars: Biochemical Pharmacology (1991), 42(10), 1875-8; cited from earlier work.
Series [1] in a line: Storage stability studies (Example 28): water content and HPLC impurities. Type of series: physicochemical. An excerpt:
A high performance liquid chromatography (HPLC) method for measuring the chemical purity of dexlansoprazole or a compound of formula (VII) of the present application, and for determination of their corresponding impurities, involves the use of a YMC-PAK ODS-A 100×4.6, 3 μm or equivalent column.
A high performance liquid chromatography (HPLC) method for measuring the impurity at RRT 1.98, and having a mass number of m/z 467, in the present application involves the use of a YMC-PRO C-18 100×4.6 mm, 3 microns or equivalent column.
Dexlansoprazole obtained from Example 23 was tested for its storage stability. The samples were stored in a tied clear polyethylene bag, placed in a black polyethylene bag filled with N2 along with a silica desiccant pouch, and the black bag was placed into a triple laminated bag along with silica gel pouch and then sealed and stored in HDPE drum packaging under the conditions noted in the following results tables. Chemical purity of the samples was measured by HPLC before and after storage.
The following impurities were monitored during stability testing:
2-mercaptobenzimidazole (designated “2-MB) having the following structure;
a “nitrosulphoxide” impurity (designated “NS”) having the following structure;
a “sulfide” impurity, having a chemical name 2-[[{4-(2,2,2-trifluoroethoxy)-3-methylpyridine-2-yl}methyl]thio]-1H-benzimidazole and the following structure;
a “sulfone” impurity, having a chemical name 2-[[{4-(2,2,2-trifluoroethoxy)-3-methylpyridine-2-yl}methyl]sulfonyl]-1H-benzimidazole and the following structure;
and an unidentified impurity at RRT (relative retention time) 1.98. Also given in the following tables are the concentration of the highest unidentified impurity as measured by HPLC, total impurities, and the water content. All results in the tables given below are expressed on a weight percent basis, and “ND” means not detected.

Series [2] is described as follows: Particle size distribution. Type of series: physicochemical. An excerpt:
“10th volume percentile” as used herein, unless otherwise defined refers to the size of particles, below which 10% of the measured sample volume lies; “50th volume percentile” as used herein, unless otherwise defined refers to the size of particles, below which 50% of the measured samples volume lies, and “90th volume percentile” as used herein, unless otherwise defined refers to the size of particles, below which 90% of the measured samples volume lies.
Particle size distributions of dexlansoprazole particles may be measured with a Jayant Test Siever (e.g., using mesh number 60, mesh opening 250 μm). Particle size distributions of dexlansoprazole particles may also be measured using light scattering equipment such as a Malvern Master Sizer 2000 (helium neon laser source, dexlansoprazole suspended in light liquid paraffin, size range: 0.02 μm to 2000 μm). Other techniques are also useful.

The nature of series [3]: Bulk density (USP Test 616, method 2). Format: physicochemical. An excerpt:
In an embodiment, the present application provides dexlansoprazole having bulk densities less than about 1 g/ml. Bulk density has been determined using Test 616 “Bulk Density and Tapped Density,” in United States Pharmacopoeia 29, United States Pharmacopeial Convention, Inc., Rockville, Md., 2005, in method 2.

Series [4] in a line: Specific surface area by the BET method. Type of series: physicochemical. As for the experimental part: The specific surface area of dexlansoprazole of the present application has been measured by a BET (Brunauer, Emmett and Teller) specific surface method using a Micromeritics Gemini surface area analyzer, model 2365. Samples for analysis were degassed at 40° C. under reduced pressure and the determination of the adsorption of nitrogen gas at 77° K was measured for relative pressure in the range of 0.05-0.3.

[5] abbreviates: At 25 ± 2° C. and 60 ± 5% Relative Humidity, 1 month.
The mark [6] stands for this setting: At 25 ± 2° C. and 60 ± 5% Relative Humidity, 2 months.
The mark [7] stands for this setting: At 25 ± 2° C. and 60 ± 5% Relative Humidity, 3 months.
[8] abbreviates: At 25 ± 2° C. and 60 ± 5% Relative Humidity, 15 days.
[9] abbreviates: At 25 ± 2° C. and 60 ± 5% Relative Humidity, 45 days.
[10] abbreviates: At 25 ± 2° C. and 60 ± 5% Relative Humidity, Initial.
Setting [11] is: storage at 2-8° C. and at 25 ± 2° C./60 ± 5% RH, up to 3 months.

Sequence of (H+—K+)-ATPase (P20648 whole entry): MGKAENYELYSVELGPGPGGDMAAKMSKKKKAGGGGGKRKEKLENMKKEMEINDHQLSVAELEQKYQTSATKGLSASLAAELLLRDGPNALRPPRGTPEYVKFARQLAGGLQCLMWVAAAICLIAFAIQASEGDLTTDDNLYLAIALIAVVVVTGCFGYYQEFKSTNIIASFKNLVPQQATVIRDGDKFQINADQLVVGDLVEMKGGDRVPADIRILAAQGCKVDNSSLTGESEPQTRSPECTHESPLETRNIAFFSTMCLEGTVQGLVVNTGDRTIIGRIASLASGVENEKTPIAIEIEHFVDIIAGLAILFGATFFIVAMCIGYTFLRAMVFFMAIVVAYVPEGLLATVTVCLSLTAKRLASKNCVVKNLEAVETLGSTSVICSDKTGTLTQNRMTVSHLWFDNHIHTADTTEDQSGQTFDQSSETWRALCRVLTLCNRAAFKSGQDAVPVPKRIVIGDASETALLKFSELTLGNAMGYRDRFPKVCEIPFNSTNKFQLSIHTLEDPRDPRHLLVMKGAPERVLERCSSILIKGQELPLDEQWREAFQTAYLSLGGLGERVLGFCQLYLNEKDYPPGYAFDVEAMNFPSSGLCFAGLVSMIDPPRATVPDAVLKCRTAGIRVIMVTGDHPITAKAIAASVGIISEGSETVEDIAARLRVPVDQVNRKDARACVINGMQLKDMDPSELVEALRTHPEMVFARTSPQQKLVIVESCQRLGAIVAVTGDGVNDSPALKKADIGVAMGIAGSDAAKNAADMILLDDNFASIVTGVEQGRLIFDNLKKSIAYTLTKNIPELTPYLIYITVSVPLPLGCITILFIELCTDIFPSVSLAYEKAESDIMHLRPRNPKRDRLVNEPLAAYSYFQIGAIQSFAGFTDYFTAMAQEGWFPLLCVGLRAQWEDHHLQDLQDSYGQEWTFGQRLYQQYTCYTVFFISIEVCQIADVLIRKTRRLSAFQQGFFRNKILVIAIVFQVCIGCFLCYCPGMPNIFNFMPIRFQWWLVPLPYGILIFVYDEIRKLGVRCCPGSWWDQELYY
Sequence of (H+—K+)-ATPase (P51164 whole entry partner): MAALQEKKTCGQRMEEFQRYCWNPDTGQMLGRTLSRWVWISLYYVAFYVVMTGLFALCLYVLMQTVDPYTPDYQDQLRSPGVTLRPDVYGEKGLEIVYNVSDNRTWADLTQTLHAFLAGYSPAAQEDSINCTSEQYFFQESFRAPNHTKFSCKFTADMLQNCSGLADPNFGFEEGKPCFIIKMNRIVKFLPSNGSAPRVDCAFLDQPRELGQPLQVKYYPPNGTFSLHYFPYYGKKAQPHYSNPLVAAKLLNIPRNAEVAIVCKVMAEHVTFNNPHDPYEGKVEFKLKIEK

With `Cc1c(OCC(F)(F)F)ccnc1C[S@@+]([O-])c1nc2ccccc2[nH]1` [Dexlansoprazole, (R)-2-[[[3-methyl-4-(2,2,2-trifluoroethoxy)-2-pyridinyl]methyl]sulfinyl]-1H-benzimidazole], the “antisecretory activity due to the inhibition of (H+—K+)-ATPase” value on (H+—K+)-ATPase is reported as “antisecretory activity”.
`Cc1c(OCC(F)(F)F)ccnc1C[S@@+]([O-])c1nc2ccccc2[nH]1` [Example 23, dexlansoprazole]: the 2-MB was 0.04 weight percent in series [1] (At 2-8° C., 1 month); 0.03 weight percent in series [1] (At 2-8° C., 2 months); 0.02 weight percent in series [1] (At 2-8° C., 3 months); 0.02 weight percent in series [1] (At 2-8° C., Initial); 0.05 weight percent in series [1] (setting [5]); 0.04 weight percent in series [1] (setting [6]). For the same molecule, the 2-MB in series [1] (setting [7]) is 0.04 weight percent; in series [1] (setting [8]) it was 0.03 weight percent; in series [1] (setting [9]), 0.04 weight percent; in series [1] (setting [10]), 0.02 weight percent. For the same molecule, the “Highest Impurity” value came out at 0.07 weight percent in series [1] (At 2-8° C., 1 month); 0.07 weight percent in series [1] (At 2-8° C., 2 months); 0.07 weight percent in series [1] (At 2-8° C., 3 months); 0.07 weight percent in series [1] (At 2-8° C., Initial); 0.09 weight percent in series [1] (setting [5]); 0.07 weight percent in series [1] (setting [6]). Moreover, the “Highest Impurity” value in series [1] (setting [7]) was found to be 0.07 weight percent; in series [1] (setting [8]), 0.08 weight percent; in series [1] (setting [9]), 0.06 weight percent; in series [1] (setting [10]), 0.07 weight percent. The “RRT 1.98” value is reported as 0.06 weight percent in series [1] (At 2-8° C., 1 month); 0.06 weight percent in series [1] (At 2-8° C., 2 months); 0.06 weight percent in series [1] (At 2-8° C., 3 months); 0.03 weight percent in series [1] (At 2-8° C., Initial); 0.14 weight percent in series [1] (setting [5]); 0.15 weight percent in series [1] (setting [6]). The “RRT 1.98” value in series [1] (setting [7]) is 0.17 weight percent; in series [1] (setting [8]) it was 0.09 weight percent; in series [1] (setting [9]) it was 0.14 weight percent; in series [1] (setting [10]) it was 0.03 weight percent. Further, the Sulfide in series [1] (At 2-8° C., 1 month) came to 0.45 weight percent; in series [1] (At 2-8° C., 2 months), 0.50 weight percent; in series [1] (At 2-8° C., 3 months) it was 0.48 weight percent; in series [1] (At 2-8° C., Initial), 0.47 weight percent; in series [1] (setting [5]), 0.47 weight percent; in series [1] (setting [6]), 0.50 weight percent. Moreover, the Sulfide in series [1] (setting [7]) is recorded as 0.50 weight percent; in series [1] (setting [8]) it was 0.50 weight percent; in series [1] (setting [9]), 0.52 weight percent; in series [1] (setting [10]), 0.47 weight percent. Moreover, the Sulfone was 0.57 weight percent in series [1] (At 2-8° C., 1 month); 0.61 weight percent in series [1] (At 2-8° C., 2 months); 0.59 weight percent in series [1] (At 2-8° C., 3 months); 0.59 weight percent in series [1] (At 2-8° C., Initial); 0.55 weight percent in series [1] (setting [5]); 0.61 weight percent in series [1] (setting [6]). In addition, the Sulfone in series [1] (setting [7]) was 0.61 weight percent; in series [1] (setting [8]), 0.61 weight percent; in series [1] (setting [9]) it was 0.64 weight percent; in series [1] (setting [10]) it was 0.59 weight percent. Moreover, the Total impurities in series [1] (At 2-8° C., 1 month) worked out at 1.54 weight percent; in series [1] (At 2-8° C., 2 months) it was 1.76 weight percent; in series [1] (At 2-8° C., 3 months) it was 1.63 weight percent; in series [1] (At 2-8° C., Initial), 1.42 weight percent; in series [1] (setting [5]), 1.80 weight percent; in series [1] (setting [6]), 1.99 weight percent. Further, the Total impurities in series [1] (setting [7]) amounted to 1.89 weight percent; in series [1] (setting [8]), 1.76 weight percent; in series [1] (setting [9]) it was 1.93 weight percent; in series [1] (setting [10]), 1.42 weight percent. Also, the Water in series [1] (At 2-8° C., 1 month) was 3.54 weight percent; in series [1] (At 2-8° C., 2 months), 2.61 weight percent; in series [1] (At 2-8° C., 3 months), 2.24 weight percent; in series [1] (At 2-8° C., Initial) it was 2.90 weight percent; in series [1] (setting [5]), 2.89 weight percent; in series [1] (setting [6]), 1.54 weight percent. Besides, the Water is reported as 1.50 weight percent in series [1] (setting [7]), 1.68 weight percent in series [1] (setting [8]), 1.29 weight percent in series [1] (setting [9]) and 2.90 weight percent in series [1] (setting [10]). The “Appearance during stability testing” value in series [1] (setting [11]) is “maintained their initial cream color powder form”. Besides, the “Physical form during stability testing” value in series [1] (setting [11]) was “remained in an amorphous form”.
Turning to `Cc1c(OCC(F)(F)F)ccnc1C[S@@+]([O-])c1nc2ccccc2[nH]1` [Example 24, dexlansoprazole], in series [2], the “Particle size distribution d(0.1)” value is reported as 0.896 μm, the “Particle size distribution d(0.5)” value turned out to be 5.308 μm and the “Particle size distribution d(0.9)” value is listed as 12.938. For the same molecule, the Bulk density in series [3] (after tapping) is reported as 0.65 g/mL. In addition, in series [3] (before tapping), the Bulk density is 0.47 g/mL.
Consider `Cc1c(OCC(F)(F)F)ccnc1C[S@@+]([O-])c1nc2ccccc2[nH]1` [Example 25, dexlansoprazole], for which the “specific surface area by the BET method” value in series [4] came out at 1.0608 m^2/g.

The values above are taken from patent US20110028518A1, “DEXLANSOPRAZOLE PROCESS AND POLYMORPHS” (DR. REDDY'S LABORATORIES LTD., priority 2008, published 2011).
